According to US10987339B2, “Uses of butylidenephthalide” (EVERFRONT BIOTECH INC., priority 2015, dated 2021):

Tests used:
[1] = tested on: NHOKs (normal human oral keratinocytes); test: MTT assay, viability of NHOKs; assay type: cell-based; conditions: 24 hours
Procedure: (§1) To investigate the effect of BP on inhibiting the growth of cancer stem cells, NHOKs (normal human oral keratinocytes) and HNC-TIC (head and neck cancer-derived tumor initiating cell)-like oral stem cells (i.e., ALDH1^+CD44^+-1 cell line or ALDH1^+CD44^+-2 cell line) were treated with different concentrations (0, 25, 50 and 100 μg/ml) of BP for 24 hours, and then, an MTT assay was utilized to analyzed the viabilities of NHOKs and HNC-TIC-like oral stem cells (i.e., ALDH1^+CD44^+-1 cell line and ALDH1^+CD44^+-2 cell line).

Sox-2 [2] = test: Western blotting, Sox-2 expression in MiaPaCa-2 cells; assay type: cell-based; conditions: MiaPaCa-2 cells, 0, 12.5, 25 and 50 μg/ml BP, 24 hours, FIG. 2
Procedure: (§2) It has been known that CD44, CD133, Sox-2 (sex-determining region Y protein (SRY)-related high-mobility group box 2) and Oct4 (octamerbinding transcription factor 4) proteins all are stemness-maintenance markers of cancer stem cells and participate in the regulation of the self-renewal and differentiation of cancer stem cells. MiaPaCa-2 cell line (i.e., a cell line of pancreatic cancer cells) was treated with different concentrations (0, 12.5, 25, and 50 μg/ml) of BP for 24 hours, and then, proteins were extracted from the cells to conduct Western blotting to determine the expressions of Sox-2, CD133 and CD44 proteins in the BP-treated MiaPaCa-2 cells. Yet another. HNC-TIC-like oral stem cells (i.e., ALDH1^+CD44^+-1 cell line or ALDH1^+CD44^+-2 cell line) were treated with different concentrations (0, 12.5, 25, and 50 μg/ml) of BP for 24 hours, and then, proteins were extracted from the cells to conduct Western blotting to determine the expressions of Sox-2 and Oct4 proteins in the BP-treated HNC-TIC-like oral stem cells (i.e., ALDH1^+CD44^+-1 cell line and ALDH1^+CD44^+-2 cell line).

[3] = tested on: HNC-TIC-like oral stem cells (ALDH1+CD44+-1 cell line or ALDH1+CD44+-2 cell line); test: Soft agar colony formation assay; assay type: cell-based
Procedure: In this research, a soft agar colony formation assay was used to investigate the effect of BP on inhibiting the tumor initiating activity of cancer stem cells. First, HNC-TIC-like oral stem cells (i.e., ALDH1^+CD44^+-1 cell line or ALDH1^+CD44^+-2 cell line) were treated with different concentrations (0, 25 and 50 μg/ml) of BP for 24 hours, and then, the treated cells of each group was separately seeded in the top agar [containing DMEM (Dulbecco's Modified Eagle's Medium medium), 10% (v/v) Fetal Calf Serum (FCS) and 0.3% (w/v) agar] (purchased from Sigma-Aldrich) at an initial cell number of 2×10^4. On the other hand, a six-well culture dish was coated with the bottom agar [containing DMEM, 10% (v/v) FCS and 0.6% (w/v) agar](purchased from Sigma-Aldrich), 2 ml for each well. After the bottom agar was solidified, each group of the top agar (containing oral cancer stem cells) was respectively added onto the bottom agar in different wells of the dish, 2 ml for each well. […] Lastly, the bottom agar was stained with 0.005% crystal violet, the number of colonies (with a diameter ≥100 μm) was counted over five fields per well with the use of a microscope, and those fields were photographed. The relative colony-forming ability of cells of each experimental group was calculated based on the result of the group treated with 0 μg/ml of BP.

ALDH = test: ALDEFLUOR flow cytometry analysis of ALDH activity; assay type: cell-based; conditions: group without DEAB addition, 0, 25 and 50 μg/ml BP, 24 hours, FIG. 4
Procedure: ALDH protein is also an important stemness-maintenance marker of cancer stem cells and participates in the regulation of the self-renewal and differentiation of cancer stem cells. HNC-TIC-like oral stem cells (i.e., ALDH1^+CD44^+-1 cell line or ALDH1^+CD44^+-2 cell line) were treated with different concentrations (0, 25 and 50 μg/ml) of BP for 24 hours, and then, 1×10^5 cells obtained from each group were separately suspended in 50 μl of a stem cell detection kit (i.e., ALDEEFLUOR array kit, purchased from […] Technologies Inc., Vancouver, Canada) buffer and the cell suspension of each group was separately added with ALDEFLUOR to a final concentration of 1 μM. Thereafter, a sample of each group was stained by […] and then analyzed by flow cytometry analysis to determine the ALDH activity of HNC-TIC-like oral stem cells (i.e., ALDH1^+CD44^+-1 cell line and ALDH1^+CD44^+-2 cell line).
The above experimental procedure was repeated, but the cell suspension of each group was further added with N,N-diethylaminobenzaldehyde (DEAB, i.e., an inhibitor of ALDH) to a final concentration of 150 μM of DEAB separately.

Sox-2 [4] = test: Western blotting, Sox-2 expression in HNC-TIC-like oral stem cells; assay type: cell-based; conditions: ALDH1+CD44+-1 and ALDH1+CD44+-2 cell lines, 0, 12.5, 25 and 50 μg/ml BP, 24 hours, FIG. 3
Procedure: as §2

CD133 = test: Western blotting, CD133 expression in MiaPaCa-2 cells; assay type: cell-based; conditions: MiaPaCa-2 cells, 0, 12.5, 25 and 50 μg/ml BP, 24 hours, FIG. 2
Procedure: as §2

[5] = tested on: HNC-TIC-like oral stem cells (ALDH1+CD44+-1 cell line and ALDH1+CD44+-2 cell line); test: MTT assay, viability of HNC-TIC-like oral stem cells; assay type: cell-based; conditions: ALDH1+CD44+-1 and ALDH1+CD44+-2 cell lines, 0, 25, 50 and 100 μg/ml BP, 24 hours, FIG. 1
Procedure: as §1

[6] = tested on: HNC-TIC-like oral stem cells (ALDH1+CD44+-1 cell line or ALDH1+CD44+-2 cell line); test: Transwell invasion assay; assay type: cell-based
Text: In this research, the effect of BP on inhibiting the migration and invasion of cancer stem cells was investigated by a transwell invasion assay system (i.e., Transwell® system, purchased from Corning, UK) with a polycarbonate filter membrane of 8-μm pore size (purchased from Corning, UK). First, the polycarbonate filter membrane was coated with Matrigel™ (purchased from BD Pharmingen, USA), and then, the coated membrane was placed in the […] of the transwell invasion assay system. Then, the lower chamber was filled with 10% serum-containing medium. On the other hand, HNC-TIC-like oral stem cells (i.e., ALDH1^+CD44^+-1 cell line or ALDH1^+CD44^+-2 cell line) were treated with different concentrations (0, 25 and 50 μg/ml) of BP for 24 hours, and then, the treated cells of each group was cultured in the upper chamber which was filled with serum-free medium, at a cell density of […] cells/100 μl for 24 hours. […] The invasion cancer cells of each group were counted and photographed over five visual fields of the membrane with the use of a 100-fold magnification under a microscope. The relative invasion ability of cells of each experimental group was calculated based on the result of the group treated with 0 μg/ml of BP.

Oct4 = test: Western blotting, Oct4 expression in HNC-TIC-like oral stem cells; assay type: cell-based; conditions: ALDH1+CD44+-1 and ALDH1+CD44+-2 cell lines, 0, 12.5, 25 and 50 μg/ml BP, 24 hours, FIG. 3
Procedure: as §2

CD44 = test: Western blotting, CD44 expression in MiaPaCa-2 cells; assay type: cell-based; conditions: MiaPaCa-2 cells, 0, 12.5, 25 and 50 μg/ml BP, 24 hours, FIG. 2
Procedure: as §2

[7] = tested on: HNC-TIC-like oral stem cells stably transfected with GFP-tagged constructs; test: Tumor initiating activity animal experiment (subcutaneous GFP-tagged HNC-TIC-like oral stem cells); assay type: in vivo, BALB/c nu/nu mice
Procedure: In this research, the effect of BP on inhibiting the tumor initiating activity of cancer stem cells was further investigated by animal experiments. First, 5-6 weeks old BALB/c nu/nu mice (weight 18-22 g) were bred under the same condition for 4 weeks. Then, HNC-TIC-like oral stem cells stably transfected with GFP-tagged constructs were injected (1×10^4 cells/0.1 mL/mouse) subcutaneously into the axilla of mice. After tumors reached 100 mm^3, mice were grouped into one control group and two experimental groups (three groups in total, n=3 per group). Then, one experimental group was injected daily with 100 mg/kg of BP for 6 days and another experimental group was injected daily with 200 mg/kg of BP for 6 days. The control group was injected daily with a vehicle (without BP) for 6 days. Ten days after the injection of BP or vehicle, the length and width were measured every 2 days (22 days in total), and then, the average tumor volume was calculated according to the following Formula 1. At the same time, the GFP signal (i.e., green fluorescence) of each group was detected and photographed by the IVIS Imaging system. The GFP intensity of each group was analyzed by Image-Pro Plus software. [length×width^2]/2 (unit: mm^3) Formula 1: […]

SMILES: CCCC=C1OC(=O)c2ccccc21 [BP, butylidenephthalide]
- viability of NHOKs ([1]; 0, 25, 50 and 100 μg/ml BP, MTT, FIG. 1): did not decrease along with the increment in the concentration of BP
- cytotoxicity to normal cells ([1]; NHOKs, up to 100 μg/ml BP): no cytotoxicity to normal cells
- expression of Sox-2 protein (Sox-2 [2]): significantly decreased along with the increment in the concentration of BP
- number of colonies in the bottom agar ([3]; 0, 25 and 50 μg/ml BP for 24 hours, 4 weeks culture, FIG. 6A): significantly decreased along with the increment in the concentration of BP
- relative colony-forming ability ([3]; 0, 25 and 50 μg/ml BP, relative to 0 μg/ml group, FIG. 6B): decreased along with the increment in the concentration of BP
- number of live cells with ALDH activity (ALDH): increased along with the increment in the concentration of BP
- expression of Sox-2 protein (Sox-2 [4]): significantly decreased along with the increment in the concentration of BP
- expression of CD133 protein (CD133): significantly decreased along with the increment in the concentration of BP
- viability of HNC-TIC-like oral stem cells [5]: decreased along with the increment in the concentration of BP
- number of cells on the polycarbonate filter membrane ([6]; 0, 25 and 50 μg/ml BP for 24 hours, then 24 hours transwell, FIG. 5A): significantly reduced along with the increment in the concentration of BP
- relative invasion ability ([6]; 0, 25 and 50 μg/ml BP, relative to 0 μg/ml group, FIG. 5B): decreased along with the increment in the concentration of BP
- expression of Oct4 protein (Oct4): significantly decreased along with the increment in the concentration of BP
- expression of CD44 protein (CD44): significantly decreased along with the increment in the concentration of BP
- tumor volume ([7]; 100 mg/kg and 200 mg/kg BP groups, daily for 6 days, compared to control group, FIG. 7B): decreased over a period of time
- GFP intensity ([7]; 100 mg/kg and 200 mg/kg BP groups, daily for 6 days, compared to control group, FIG. 7C, 7D): significantly decreased
- body weight of mice ([7]; 100 mg/kg or 200 mg/kg BP injected daily for 6 days, FIG. 7A): didn't change significantly
